The assay addresses human orexin type 2 receptor (hOX2R) (Homo sapiens (Human), UniProt O43614). As to the kind of experiment: Measurement of orexin type 2 receptor agonist activity (Experimental Example 2-1, FLIPR TETRA, intracellular Ca2+). The settings on record: CHO dhfr- cells expressing hOX2R; for Emax at 30 µM: value at 30 uM concentration, orexin B as full agonist = 100%; for Emax: read-out: Emax (%). The assay is classed as cell-based.

Where [1] appears, read: agonist activity, 10 nM human orexin B = 100%.

The structures appear in SMILES notation.

human orexin type 2 receptor (hOX2R), sequence (O43614 whole entry): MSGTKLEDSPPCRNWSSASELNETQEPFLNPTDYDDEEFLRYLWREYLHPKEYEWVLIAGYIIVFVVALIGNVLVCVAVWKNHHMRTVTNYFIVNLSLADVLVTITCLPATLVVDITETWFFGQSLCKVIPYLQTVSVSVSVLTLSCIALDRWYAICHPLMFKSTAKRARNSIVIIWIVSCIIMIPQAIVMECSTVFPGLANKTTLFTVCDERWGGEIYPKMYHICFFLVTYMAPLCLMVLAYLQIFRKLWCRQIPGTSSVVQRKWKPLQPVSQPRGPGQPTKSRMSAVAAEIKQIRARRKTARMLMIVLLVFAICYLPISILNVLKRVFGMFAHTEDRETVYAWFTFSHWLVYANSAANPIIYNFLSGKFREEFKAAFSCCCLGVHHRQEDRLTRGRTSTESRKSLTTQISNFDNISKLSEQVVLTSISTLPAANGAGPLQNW

Regarding `COC(=O)N1CCC[C@H](NS(C)(=O)=O)[C@@H]1CO[C@H]1CC[C@@H](c2cc(F)ccc2F)CC1` [Example 11, methyl (2R,3S)-2-(((cis-4-(2,5-difluorophenyl)cyclohexyl)oxy)methyl)-3-((methylsulfonyl)amino)piperidine-1-carboxylate], the Emax at 30 µM is 114%. Further, under setting [1], the EC50 is 2 nM.
The like results for `CC(=O)N1CCC[C@H](NS(C)(=O)=O)[C@@H]1CO[C@H]1CC[C@@H](C2CCCCC2)CC1` [Example 71, N-(cis-1-acetyl-2-(((1s,4s)-1,1′-bi(cyclohexyl)-4-yloxy)methyl)piperidin-3-yl)methanesulfonamide] were, in that order, 83% and 4300 nM.
Taken in the same sequence, the figures for `CCCNC(=O)N1CCC[C@H](NS(C)(=O)=O)[C@@H]1CO[C@H]1CC[C@@H](C(C)C)CC1` (relative stereo) [Example 100, cis-2-(((cis-4-isopropylcyclohexyl)oxy)methyl)-3-((methylsulfonyl)amino)-N-propylpiperidine-1-carboxamide] were 112% and 2.2 nM.
The like results for `CC(C)[C@H]1CC[C@@H](OC[C@H]2[C@@H](NS(C)(=O)=O)CCCN2C(=O)NCCO)CC1` (relative stereo) [Example 97, cis-N-(2-hydroxyethyl)-2-(((cis-4-isopropylcyclohexyl)oxy)methyl)-3-((methylsulfonyl)amino)piperidine-1-carboxamide] were, in that order, 108% and 4.5 nM.
On to `CCOC(=O)N1CCC[C@H](NS(C)(=O)=O)[C@@H]1COC1CCN(c2ccccc2F)CC1` (relative stereo) [Example 228, ethyl cis-2-(((1-(2-fluorophenyl)piperidin-4-yl)oxy)methyl)-3-((methylsulfonyl)amino)piperidine-1-carboxylate], for which, where the note is “FLIPR TETRA, Fluo-4AM”, the response was half-maximal at 2100 nM (EC50) and the Emax was determined as 89%.
Taken in the same sequence, the figures for `CS(=O)(=O)N[C@H]1CCCN(C(=O)C2CC2)[C@H]1CO[C@H]1CC[C@@H](c2cccc(F)c2F)CC1` [Example 250, N-((2R,3S)-1-(cyclopropylcarbonyl)-2-(((cis-4-(2,3-difluorophenyl)cyclohexyl)oxy)methyl)piperidin-3-yl)methanesulfonamide] were 1.7 nM and 105%.
The like results for `CS(=O)(=O)N[C@H]1CCCN(C(=O)C2CC2)[C@H]1CO[C@H]1CC[C@@H](c2ccccc2OC(F)(F)F)CC1` (relative stereo) [Example 294, N-(cis-1-(cyclopropylcarbonyl)-2-(((cis-4-(2-(trifluoromethoxy)phenyl)cyclohexyl)oxy)methyl)piperidin-3-yl)methanesulfonamide] were, in that order, 130 nM and 95%.
The like results for `CC(=O)N1CCC[C@H](NS(C)(=O)=O)[C@@H]1CO[C@H]1CC[C@@H](c2ccccc2C)CC1` [Example 319, N-((2R,3S)-1-acetyl-2-(((cis-4-(2-methylphenyl)cyclohexyl)oxy)-methyl)piperidin-3-yl)methanesulfonamide] were, in that order, 29 nM and 106%.
Take `CS(=O)(=O)N[C@H]1CCCN(C(=O)C2(C#N)CC2)[C@H]1CO[C@H]1CC[C@@H](c2ccccc2)CC1` [Example 187, N-((2R,3S)-1-((1-cyanocyclopropyl)carbonyl)-2-(((cis-4-phenylcyclohexyl)oxy)methyl)piperidin-3-yl)methanesulfonamide]: for the setting “FLIPR TETRA, Fluo-4AM”, the EC50 is 370 nM and the maximal response (Emax) was determined as 93%.
The like results for `CS(=O)(=O)N[C@H]1CCCN(C(=O)[C@@H]2CCOC2)[C@H]1CO[C@H]1CC[C@@H](c2ccccc2)CC1` [Example 150, N-(cis-2-(((cis-4-phenylcyclohexyl)oxy)methyl)-1-((3R)-tetrahydrofuran-3-ylcarbonyl)piperidin-3-yl)methanesulfonamide] were, in that order, 30 nM and 99%.
`[2H]C1C([2H])[C@]([2H])(C(C)C)C([2H])C([2H])[C@]1([2H])OC[C@H]1[C@@H](NS(C)(=O)=O)CCCN1C(=O)NCC` (stereo partly drawn) [Example 104, cis-N-ethyl-2-(((cis-4-isopropyl(1,2,3,4,5,6-d6)cyclohexyl)oxy)methyl)-3-((methylsulfonyl)amino)piperidine-1-carboxamide]: the Emax at 30 µM was 100%. A half-maximal response under setting [1] (EC50) required 2.2 nM.
On to `CS(=O)(=O)N[C@H]1CCCN(C(=O)C2CCCCC2)[C@H]1COC1CCN(c2ccccc2F)CC1` (relative stereo) [Example 236, N-(cis-1-(cyclohexylcarbonyl)-2-(((1-(2-fluorophenyl)piperidin-4-yl)oxy)methyl)piperidin-3-yl)methanesulfonamide], for which, under “FLIPR TETRA, Fluo-4AM”, the EC50 came to 1800 nM and the Emax turned out to be 86%.
The like results for `CS(=O)(=O)N[C@H]1CCCN(C(=O)C2CC2)[C@H]1COC1CCC(c2ccccn2)CC1` (relative stereo) [Example 251, N-(cis-1-(cyclopropylcarbonyl)-2-(((4-(pyridin-2-yl)cyclohexyl)oxy)methyl)piperidin-3-yl)methanesulfonamide] were, in that order, 240 nM and 98%.
Take `CC(C)(C)OC(=O)N1CCC[C@H](NS(C)(=O)=O)[C@@H]1CO[C@H]1CC[C@@H](c2ccccc2)CC1` (relative stereo) [Example 155, tert-butyl cis-3-((methylsulfonyl)amino)-2-(((cis-4-phenylcyclohexyl)oxy)methyl)piperidine-1-carboxylate]: where the note is “FLIPR TETRA, Fluo-4AM”, the maximum response (Emax) is 95%.
As to `CN(C)S(=O)(=O)N[C@H]1CCCN(C(=O)OCC(F)(F)F)[C@H]1COC1CCN(c2ncccn2)CC1` (relative stereo) [Example 315, 2,2,2-trifluoroethyl cis-3-((dimethylsulfamoyl)amino)-2-(((1-(pyrimidin-2-yl)piperidin-4-yl)oxy)methyl)piperidine-1-carboxylate], under “FLIPR TETRA, Fluo-4AM”, it took 170 nM to reach a half-maximal effect (EC50) and the Emax was 103%.
Taken in the same sequence, the figures for `CCNC(=O)N1CCC[C@H](NS(C)(=O)=O)[C@@H]1CO[C@H]1C[C@H](Oc2ccccc2)C1` (relative stereo) [Example 281, cis-N-ethyl-3-((methylsulfonyl)amino)-2-(((trans-3-phenoxycyclobutyl)oxy)methyl)piperidine-1-carboxamide] were 3300 nM and 81%.
Taken in the same sequence, the figures for `CS(=O)(=O)N[C@H]1CCCN(C(=O)Cc2nccs2)[C@H]1CO[C@H]1CC[C@@H](c2ccccc2)CC1` (relative stereo) [Example 157, N-(cis-2-(((cis-4-phenylcyclohexyl)oxy)methyl)-1-(1,3-thiazol-2-ylacetyl)piperidin-3-yl)methanesulfonamide] were 140 nM and 91%.
Taken in the same sequence, the figures for `CS(=O)(=O)N[C@H]1CCCN(C(=O)CO)[C@H]1CO[C@H]1CC[C@@H](c2ccccc2C(F)(F)F)CC1` [Example 283, N-((2R,3S)-1-glycoloyl-2-(((cis-4-(2-(trifluoromethyl)phenyl)cyclohexyl)oxy)methyl)piperidin-3-yl)methanesulfonamide] were 8.9 nM and 95%.
For `COC(=O)N1CCC[C@H](NS(C)(=O)=O)[C@@H]1CO[C@H]1CC[C@@](O)(c2ccccc2)CC1` [Example 331, methyl cis-2-(((trans-4-hydroxy-4-phenylcyclohexyl)oxy)methyl)-3-((methylsulfonyl)amino)piperidine-1-carboxylate], the Emax (FLIPR TETRA, Fluo-4AM) is 98%.
For the compound `CC(C)C(=O)N1CCC[C@H](NS(C)(=O)=O)[C@@H]1COC1CCN(c2ccccc2F)CC1` (relative stereo) [Example 224, N-(cis-2-(((1-(2-fluorophenyl)piperidin-4-yl)oxy)methyl)-1-isobutyrylpiperidin-3-yl)methanesulfonamide], under “FLIPR TETRA, Fluo-4AM”, the EC50 worked out at 1700 nM and the Emax came to 90%.
Taken in the same sequence, the figures for `COC(=O)N1CCC[C@H](NS(C)(=O)=O)[C@@H]1COC1CCN(c2ccccc2C(F)(F)F)CC1` (relative stereo) [Example 165, methyl cis-3-((methylsulfonyl)amino)-2-(((1-(2-(trifluoromethyl)phenyl)piperidin-4-yl)oxy)methyl)piperidine-1-carboxylate] were 3800 nM and 80%.
`COc1cccc([C@H]2CC[C@@H](OC[C@H]3[C@@H](NS(C)(=O)=O)CCCN3C(=O)C3CC3)CC2)c1` [Example 304, N-((2R,3S)-1-(cyclopropylcarbonyl)-2-(((cis-4-(3-methoxyphenyl)cyclohexyl)oxy)-methyl)piperidin-3-yl)methanesulfonamide]: for the setting “FLIPR TETRA, Fluo-4AM”, it took 23 nM to reach a half-maximal effect (EC50) and the Emax turned out to be 105%.
`CS(=O)(=O)N[C@H]1CCCN(C(=O)OCC(F)(F)F)[C@H]1CO[C@H]1CC[C@@H](c2cccc(F)c2)CC1` [Example 276, 2,2,2-trifluoroethyl (2R,3S)-2-(((cis-4-(3-fluorophenyl)cyclohexyl)oxy)methyl)-3-((methylsulfonyl)amino)piperidine-1-carboxylate]: under “FLIPR TETRA, Fluo-4AM”, the Emax was 95%.
With `CC(C)[C@H]1CC[C@@H](OC[C@H]2[C@@H](NS(C)(=O)=O)CCCN2C(=O)CCS(C)(=O)=O)CC1` (relative stereo) [Example 74, N-(cis-2-(((cis-4-isopropylcyclohexyl)oxy)methyl)-1-(3-(methylsulfonyl)-propanoyl)piperidin-3-yl)methanesulfonamide], the maximum response (Emax) at 30 µM was found to be 89%. Besides, the EC50 under setting [1] is 750 nM.
Turning to `CS(=O)(=O)N[C@H]1CCCN(C(=O)C2(O)CC2)[C@H]1CO[C@H]1CC[C@@H](c2ccccc2)CC1` (relative stereo) [Example 176, N-(cis-1-((1-hydroxycyclopropyl)carbonyl)-2-(((cis-4-phenylcyclohexyl)oxy)methyl)piperidin-3-yl)methanesulfonamide], under “FLIPR TETRA, Fluo-4AM”, the EC50 was found to be 45 nM and the Emax is 98%.
The like results for `CS(=O)(=O)N[C@H]1CCCN(C(=O)CC2CC2)[C@H]1COC1CCN(c2ccccc2F)CC1` (relative stereo) [Example 226, N-(cis-1-(cyclopropylacetyl)-2-(((1-(2-fluorophenyl)piperidin-4-yl)oxy)methyl)piperidin-3-yl)methanesulfonamide] were, in that order, 2200 nM and 86%.

Source of the values: patent US10287305B2, “Substituted piperidine compound and use thereof” (Takeda Pharmaceutical Company Limited, priority 2016, dated 2019).
